These results are taken from US20020058295A1, “Method of screening candidate compounds for susceptibility to oxidative metabolism” (priority 1998, published 2002).

Data set [1] concerns the target T1, CYP3A4 (Homo sapiens, UniProt P08684). Description: DCF formation during CYP3A4-mediated metabolism of substrates (CYP3A4OR, DCFH-DA, NADPH). As for the experimental part: A fluorogenic probe 2′, 7′-dichlorodihydrofluorescin-diacetate (DCFH-DA) was added to a CYP-mediated reaction mixture containing a substrate, isoenzyme, and NADPH in Tris buffer (50 mM, pH 7.4). The substrate comprised testosterone. Metabolism of the substrate was examined by measurement of formation of the resulting metabolite (prior art method) and/or 2′, 7′-dichlorofluroescein (DCF; method in accordance with the present invention) which was converted from the DCFH-DA in the presence of the ROS produced by CYP-mediated reactions. Dextromethorphan and benzyloxyresorufin served as two additional substrates, and phenacetine (not a CYP3A4 substrate) as a negative control for CYP3A4 to test whether the method of the present invention could differentiate substrates with different metabolic rates or substrates from non-substrates.
Initial studies were conducted to examine whether DCF was formed during CYP-mediated oxidation using testosterone hydroxylation by CYP3A4OR. A reaction mixture (total 2 ml) comprising DCFH-DA (5.36 μM), CYP3A4OR (0.5 mg/ml) and testosterone (50 μM) in Tris buffer (50 mM, pH 7.4) was prepared. The reaction was initiated by adding NADPH (0.5 mM) and allowed to proceed at room temperature. The fluorescent spectra (emission and excitation) of DCF formed from the incubation was determined using LS50B Luminescence Spectrometer (Perkin-Elmer, Norwalk, Conn.). The spectra were compared with that of standard DCF in Tris buffer (50 mM, pH 7.4). An incubation mixture that contained all the components as described previously except for DCFH-DA served as a control.
(§1) Metabolism—After obtaining the maximal excitation and emission wavelengths of DCF under experimental conditions, the fluorescent signals at the maximal excitation and emission wavelengths were determined for incubation reactions that contained 12.5, 25, and 50 μM testosterone to test whether DCF formation was dependent on testosterone concentrations. The incubation conditions were the same as those described above. The formation of DCF at 10 min post addition of NADPH was calculated based on the standard curve of DCF. The standard curve covered DCF concentrations ranging from 0.05 to 50 nM. In parallel, DCF formation was determined with incubation reactions that were devoid of any of NADPH, CYP3A4 or testosterone.
DCFH-DA (1, 2.5 or 5 μM) was incubated with CYP3A4OR (0.5 mg/ml protein), testosterone (33 μM), and NADPH (1 mM) in Tris buffer. DCF concentration was measured at 5, 10, 20 and 30 min. The effect of NADPH concentration on DCF formation at 20 and 30 min was examined with incubations containing NADPH (0.5, 1 or 2 mM), testosterone (33 μM), and DCFH-DA (2.5 μM).
DCFH-DA (2.5 ,μM) was incubated with testosterone (5-40 4 μM), CYP3A4OR (0.5 mg/ml protein) and NADPH (1 mM) in Tris buffer. The total incubation volume was 1 ml. The formation of DCF was measured at 10 and 20 min post addition of NADPH. Triplicate incubations were performed at each concentration. A Michaelis-Menten function was used to fit to DCF formation rate vs. testosterone concentration data to obtain estimates of the relevant kinetic parameters using the nonlinear least-squares regression method (Winnonlin Scientific Consulting Co., Apex, N.C.). Parallel experiments were conducted to obtain the kinetic parameters based on measurement of 6β-OH testosterone, a specific CYP3A4-mediated metabolite of testosterone, with the HPLC-UV method. The concentration range of testosterone used for the HPLC-UV method was 10 to 75 μM.
Dextromethorphan (2-100 μM), benzyloxyresorufin (5-100 μM), or phenacetin (48 μM) was incubated with CYP3A4OR (0.5 or 1 mg/ml), DCFH-DA (2.5 μM) and NADPH (1 mM) in Tris buffer. In the case of benzyloxyresorufin, pluronic F-68 (2%, 5 μl) was added to the reaction mixture (Crespi et al., Ana. Biochem. 248:188-190). DCF formation was measured at timed intervals.

The target in data set [2] is T1, CYP3A4. The note with it: Crespi et al., Anal. Biochem. 248:188-190 (1997); cited from earlier work.
The target of data set [3] is T1, CYP3A4. The experiment in a line: HPLC monitoring of potential phenacetin metabolites after incubation with CYP3A4OR. Format: in vitro ADME. Details: Glaxo Wellcome Inc. (gift). The note with it: phenacetin 92 μM; CYP3A4OR 0.5 or 1 mg/ml; NADPH 1 mM; 10 or 30 min.
Description: Briefly, acetonitrile (0.4 ml) was added to a reaction mixture (0.5 ml) of phenacetin as described previously. The resultant solution was mixed and centrifuged (15,000×3 min). An aliquot (100 μl) of the supernatant was injected to an Advantage 100 5 micron C18 column (4.6×250 mm, Thomas Liquid Chromatography). The mobile phase comprised CH3CN and H2O with a gradient from 1 to 99% CH3CN over 20 min at a flow rate of 1 ml/min. Phenacetin and its potential metabolites were monitored at 244 nm.
Potential metabolites of phenacetin were monitored by HPLC. […] Phenacetin (92 μM) was incubated with CYP3A4oR (0.5 or 1 mg/ml) and NADPH (1 mM) for 10 or 30 min. Incubation in the absence of NADPH was used as control.
For data set [4], the target named is T1, CYP3A4. The experiment in a line: 6β-OH testosterone formation during CYP3A4-mediated testosterone metabolism, HPLC-UV method. The note with it: recombinant CYP3A4OR. As for the experimental part: as §1
DCFH-DA (2.5 ,μM) was incubated with testosterone (5-40 4 μM), CYP3A4OR (0.5 mg/ml protein) and NADPH (1 mM) in Tris buffer. The total incubation volume was 1 ml. The formation of DCF was measured at 10 and 20 min post addition of NADPH. Triplicate incubations were performed at each concentration. A Michaelis-Menten function was used to fit to DCF formation rate vs. testosterone concentration data to obtain estimates of the relevant kinetic parameters using the nonlinear least-squares regression method (Winnonlin Scientific Consulting Co., Apex, N.C.). […]

Data set [5] addresses T2, CYP1A2 (Homo sapiens, UniProt P05177).
T2 sequence (P05177 1-516): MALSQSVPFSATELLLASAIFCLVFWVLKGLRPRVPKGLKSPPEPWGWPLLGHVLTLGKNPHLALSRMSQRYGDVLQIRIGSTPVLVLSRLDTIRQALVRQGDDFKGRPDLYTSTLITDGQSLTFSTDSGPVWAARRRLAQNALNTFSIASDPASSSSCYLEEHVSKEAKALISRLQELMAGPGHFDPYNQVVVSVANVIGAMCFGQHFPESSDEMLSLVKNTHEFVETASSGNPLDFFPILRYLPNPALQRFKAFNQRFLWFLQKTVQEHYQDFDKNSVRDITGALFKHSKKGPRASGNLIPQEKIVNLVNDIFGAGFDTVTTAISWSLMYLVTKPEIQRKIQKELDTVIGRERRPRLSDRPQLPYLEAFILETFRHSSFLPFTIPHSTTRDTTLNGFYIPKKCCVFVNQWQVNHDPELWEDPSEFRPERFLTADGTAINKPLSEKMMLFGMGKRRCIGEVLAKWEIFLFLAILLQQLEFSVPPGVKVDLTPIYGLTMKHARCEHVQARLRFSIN
To be noted: 5 min.
Description: The effect of furafylline, a specific inhibitor of CYP1A2, on CYP1A2-mediated ethoxyresorufin metabolism was also examined. Furafylline (1 and 10 ,μM) was pre-incubated with CYP1A2 SUPERSOME™ (180 μg/ml protein) and NADPH (4 mM) in Tris buffer in a total volume of 0.5 ml for 10 min. Then ethoxyresorufin (5 μM), DCFH-DA (5 μM), and supplemental NADPH was added to the mixture. The reaction proceeded for 5 min.

Substrate in data set [6]: CCOc1ccc2nc3ccc(=O)cc-3oc2c1
Description: Resorufin formation during CYP1A2-mediated metabolism of ethoxyresorufin (fluorescence spectrophotometry). It counts as in vitro ADME, human. The note with it: other: CYP1A2 SUPERSOME 90 μg/ml; 5 min. As for the experimental part:
Resorufin, a common metabolite of ethoxyresorufin by CYP1A2 and of benzyloxyresorufin by CYP3A4, was measured by fluorescence spectrophotometry as described above for DCF, with excitation and emission wavelength at 570 and 583 nm, respectively.
(§2) Initial experiments were conducted to examine ethoxyresorufin concentration-dependent formation of DCF. Ethoxyresorufin (0.5, 5, 50 μM) was incubated with CYP1A2 SUPERSOME™ (sold under this trademark by Gentest Corp., Woburn, Mass.) (90 μg/ml protein), DCFH-DA (5 μM) and NADPH (1 mM). Formation of resorufin and DCF for the sample was measured at 8 and 10 min, respectively. The kinetic parameters then were obtained by incubating ethoxyresorufin (0.5-2.5 μM) with CYP1A2 SUPERSOME™ (90 μg/ml protein), DCFH-DA (5 μM), and NADPH (1 mM) for 5 min for measurement of resorufin formation and 15 min for measurement of DCF formation. Formation of DCF and resorufin was determined by fluorescence spectrophotometry. All experiments were performed in triplicate unless otherwise indicated.

Substrate in data set [7]: CCOc1ccc2nc3ccc(=O)cc-3oc2c1
Description: DCF formation during CYP1A2-mediated metabolism of ethoxyresorufin (CYP1A2 SUPERSOME). It counts as in vitro ADME, human. To be noted: other: CYP1A2 SUPERSOME 90 μg/ml; DCFH-DA 5 μM; 15 min. As for the experimental part:
as §2

The mark [8] stands for this setting: read-out: Apparent Km by measurement of DCF formation, CYP3A4OR, DCFH-DA 2.5 μM, NADPH 1 mM, Michaelis-Menten fit.

Read-outs that look alike come from different tables or passages of the source.

T1 sequence (P08684 whole entry): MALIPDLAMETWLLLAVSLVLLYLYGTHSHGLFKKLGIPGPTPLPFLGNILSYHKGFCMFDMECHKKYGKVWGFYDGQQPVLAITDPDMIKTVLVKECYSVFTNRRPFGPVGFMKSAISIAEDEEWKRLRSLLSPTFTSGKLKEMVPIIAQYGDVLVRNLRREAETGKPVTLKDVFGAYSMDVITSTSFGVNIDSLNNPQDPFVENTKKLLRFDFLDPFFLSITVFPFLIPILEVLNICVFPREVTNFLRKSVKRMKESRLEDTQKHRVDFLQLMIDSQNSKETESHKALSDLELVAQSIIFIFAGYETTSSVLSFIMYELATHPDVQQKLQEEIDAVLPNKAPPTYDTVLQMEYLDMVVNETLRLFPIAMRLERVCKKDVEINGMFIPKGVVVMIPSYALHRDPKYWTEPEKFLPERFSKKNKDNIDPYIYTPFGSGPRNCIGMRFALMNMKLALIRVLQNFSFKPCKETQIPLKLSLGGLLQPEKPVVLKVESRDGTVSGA

Consider `O=c1ccc2nc3ccc(OCc4ccccc4)cc3oc-2c1` [Benzyloxyresorufin, 7-benzyloxyresorufin], for which the “Apparent Vmax by measurement of DCF formation” value in data set [1] (CYP3A4OR, DCFH-DA 2.5 μM, NADPH 1 mM, Michaelis-Menten fit) is given as 1.17 ± 0.14 pmol DCF/min/mg pr. For the same molecule, the Km – broadly, the substrate concentration at which the rate is half of its maximum – in data set [1] (setting [8]) is 3.79 ± 2.34 µM. Moreover, in data set [2], the “Vmax for benzyloxyresorufin by CYP3A4” value is 0.31 min⁻¹.

For `CCOc1ccc(NC(C)=O)cc1` [Phenacetin, N-[4-ethoxyphenyl] acetamide], the “metabolites found by prior art HPLC methods” value in data set [3] was “no detectable metabolites”. In addition, in data set [1] (human, 48 μM, pH 7.4), the “DCF formation from potential metabolism by CYP3A4 (in words)” value was “^aPhenacetin was not significantly metabolized by CYP3A4, and DCF formation was not sufficiently high to allow measurement”.

As to `C[C@]12CC[C@H]3[C@@H](CCC4=CC(=O)CC[C@@]43C)[C@@H]1CC[C@@H]2O` [Testosterone], the Km came out at 11.9 µM in data set [1] (human, pH 7.4, Apparent Km by measurement of DCF formation, CYP3A4OR, DCFH-DA 2.5 μM, NADPH 1 mM, Michaelis-Menten fit); 12 ± 3.58 µM in data set [1] (setting [8]); 43.4 µM in data set [4]. Besides, the “Km by DCF measurement lower than Km by 6β-OH testosterone measurement” value in data set [1] (ratio of the two Km values) is given as “approximately 3.5 fold”.

Regarding `Cc1nc2c([nH]1)c(=O)n(C)c(=O)n2Cc1ccco1` [furafylline], the DCF formation in data set [5] (1 μM) was 83.9 ±10.2 % of the control; in data set [5] (10 μM), 73.9±7.0 % of the control.

B1: CYP1A2 (Homo sapiens) (protein)
chain: T2 sequence (P05177 1-516)
notes: purchased Gentest Corp. (Woburn, Mass.)
In the case of B1, the figures for the Km in data set [6] and in data set [7] were 4.89 ± 1.71 µM and 3.46 ± 1.07 µM, respectively.
